Laboratory results taken from US20260275279A1, “THYROCYTES AND USES THEREOF” (LifeNet Health, priority 2023, published 2026).
pIC50: −log10 of the molar value. Where two headings read alike, the source gives them in different places.

Assays:
[1] = tested on: 3D thyrocyte cell culture; settings: 1.0×10^−10 to 1.0×10^−4 M
Protocol: After collecting media for T4 measurement, backing tape was put on the back of the 3D culture 96-well plate. 100 μL of a 1:1 mixture of CellTiter-Glo® Luminescent Cell Viability Assay (Promega, Madison, WI) and HTCM was added into each well of the 3D cell culture plate. The plate was covered and shaken for 2 minutes on an orbital plate shaker at 500 rpm followed by a 10 minute incubation in the dark without shaking. Luminescence reading was recorded using a CLARIOStar (BMG Labtech) microplate reader.

[2] = tested on: T3/T4 synthesis; test: Example 10 3D culture TDC screening, T3/T4 synthesis by ELISA and LC-MS/MS; assay type: cell-based, human
Protocol: For TDC Screening, these procedures were followed: • Prepare the Plate by adding 50 μL of 10 mg/ml of Matrigel, then polymerize the Matrigel at 37° C. for 1 hr. • Thaw the thyrocytes in 37° C. water bath. • Resuspend the cells in humanized medium (h7H). • Seed the cells at the optimal seeding density, 7,500 cells per 0.32 cm2. • Culture the cells in h7H medium. • Exchange the medium on Day 2, 5, 7, 9 and 12. • Start stimulating the cells with activators (e.g., bTSH, hTSH, M22, K!-18, ML-109) on Day 2 • Treatment with the activator is between Day 2-14 • Compound treatment starts on Day 9. • 8 doses: Concentrations (10^−10 to 10^−4M) • Serial dilutions were made in DMSO (Dilution factor 1:1000) • Compounds were added to the media • Day 12: Refresh media with the compound • Day 14: Collect the supernatant for the T4 analysis by ELISA and LC-MS/MS.

[3] = tested on: T4 synthesis; test: Reference chemical evaluation: inhibition of T4 synthesis in 3D microtissue cultures; assay type: cell-based, human; settings: for effect on T4 levels: 0.0001 to 100 μM; for pIC50: 120-h treatment days 9-14, 1 mIU/mL bovine TSH, 7,500 cells/well, read-out: Average half-maximal inhibitory concentrations (IC50), T4 synthesis
Protocol: 3D cultures with cell seeding density of 7,500 cells/well were treated with 1 mIU/mL bovine TSH on days 2, 5, 7, 9, and 12. For each studied compound, cells were dosed on days 9 and 12 with concentrations ranging from 0.0001 to 100 μM across a log-fold titration. T4 levels were measured as described. All measured data were normalized to DMSO vehicle control.
Images are shown from representative donor lots. Values were normalized to the number of cells seeded per well. Significance was calculated in MiniTab (State College, PA) using either Student's t-test between 2 groups or One-way ANOVA with Tukey post hoc testing when comparing 3 groups or more to determine statistical significance with 95% confidence and *p<0.05 for statistical significance. GraphPad Prism v.9 was used to determine EC50 and EC90. Four-parameter nonlinear regression fit was used to determine the half-maximal inhibition concentration IC50 using GraphPad Prism v.9.
Established antagonists of thyroid hormone production were selected to determine the concentration-response profiles in 3D cultures for TDC screening purposes (FIG. 21).

pIC50 [3] | pIC50 ([3]; Homo sapiens, 120 h) | SMILES | toxicity of inhibitor concentrations to the cells [1] | T3/T4 synthesis [2] | effect on T4 levels [3]
6.12 | 6.18 | CCCc1cc(=O)[nH]c(=S)[nH]1 [6-propyl-2-thiouracil] | not toxic to the cells with the exception of 6-propyl-2-thiouracil for 2021159 at the highest dose | inhibited | consistent concentration-dependent decrease in T4 levels
– | – | Cn1cc[nH]c1=S [methimazole, Methimazole] | – | inhibited | consistent concentration-dependent decrease in T4 levels
